From ChEMBL document CHEMBL3045836, “Synthesis characterization and biological evaluation of some alkoxyphthalimide derivatives of 3-(4-substituted phenyl)-6,6-diphenyl-3,3a-dihydro-2H-imidazo[2,1-b]pyrazolo[3,4-d][1,3]thiazol-7(6H)-one” (2011)

Assays:
Format in all cases: functional
Settings in all cases: read-out: IZ
Bacillus subtilis = assay: Antibacterial activity against Bacillus subtilis at 500 ppm
Escherichia coli = assay: Antibacterial activity against Escherichia coli at 500 ppm
Aspergillus fumigatus = assay: Antifungal activity against Aspergillus fumigatus at 500 ppm
Candida albicans = assay: Antifungal activity against Candida albicans at 500 ppm
Pseudomonas aeruginosa = assay: Antibacterial activity against Pseudomonas aeruginosa at 500 ppm
Proteus mirabilis = assay: Antibacterial activity against Proteus mirabilis at 500 ppm

O=C1c2ccccc2C(=O)N1OCCNc1nc(-c2ccc(Cl)cc2)c2c(n1)N1C(=O)C(c3ccccc3)(c3ccccc3)N=C1S2
zone of inhibition at 500 ppm (Bacillus subtilis): 5 mm | zone of inhibition at 500 ppm (Escherichia coli): 13 mm | zone of inhibition at 500 ppm (Aspergillus fumigatus): 6 mm | zone of inhibition at 500 ppm (Candida albicans): 11 mm | zone of inhibition at 500 ppm (Pseudomonas aeruginosa): 13 mm | zone of inhibition at 500 ppm (Proteus mirabilis): 4 mm

O=C1c2ccccc2C(=O)N1OCCN1N=C2C(SC3=NC(c4ccccc4)(c4ccccc4)C(=O)N32)C1c1ccccc1 (stereo unspecified)
zone of inhibition at 500 ppm (Bacillus subtilis): 9 mm | zone of inhibition at 500 ppm (Escherichia coli): 12 mm | zone of inhibition at 500 ppm (Aspergillus fumigatus): 4 mm | zone of inhibition at 500 ppm (Candida albicans): 19 mm | zone of inhibition at 500 ppm (Pseudomonas aeruginosa): 14 mm | zone of inhibition at 500 ppm (Proteus mirabilis): 3 mm

O=C1c2ccccc2C(=O)N1OCCN1N=C2C(SC3=NC(c4ccccc4)(c4ccccc4)C(=O)N32)C1c1ccc(F)cc1 (stereo unspecified)
zone of inhibition at 500 ppm (Bacillus subtilis): 6 mm | zone of inhibition at 500 ppm (Escherichia coli): 12 mm | zone of inhibition at 500 ppm (Aspergillus fumigatus): 5 mm | zone of inhibition at 500 ppm (Candida albicans): 20 mm | zone of inhibition at 500 ppm (Pseudomonas aeruginosa): 11 mm | zone of inhibition at 500 ppm (Proteus mirabilis): 8 mm

O=C1c2ccccc2C(=O)N1OCCNc1nc(-c2ccccc2)c2c(n1)N1C(=O)C(c3ccccc3)(c3ccccc3)N=C1S2
zone of inhibition at 500 ppm (Bacillus subtilis): 7 mm | zone of inhibition at 500 ppm (Escherichia coli): 18 mm | zone of inhibition at 500 ppm (Aspergillus fumigatus): 2 mm | zone of inhibition at 500 ppm (Candida albicans): 26 mm | zone of inhibition at 500 ppm (Pseudomonas aeruginosa): 14 mm | zone of inhibition at 500 ppm (Proteus mirabilis): 10 mm

O=C(O)c1cn(C2CC2)c2cc(N3CCNCC3)c(F)cc2c1=O [CIPROFLOXACIN]
zone of inhibition at 500 ppm (Bacillus subtilis): 17 mm | zone of inhibition at 500 ppm (Escherichia coli): 16 mm | zone of inhibition at 500 ppm (Pseudomonas aeruginosa): 18 mm | zone of inhibition at 500 ppm (Proteus mirabilis): 16 mm

O=C1c2ccccc2C(=O)N1OCCN1N=C2C(SC3=NC(c4ccccc4)(c4ccccc4)C(=O)N32)C1c1ccc(Cl)cc1 (stereo unspecified)
zone of inhibition at 500 ppm (Bacillus subtilis): 4 mm | zone of inhibition at 500 ppm (Escherichia coli): 11 mm | zone of inhibition at 500 ppm (Aspergillus fumigatus): 6 mm | zone of inhibition at 500 ppm (Candida albicans): 20 mm | zone of inhibition at 500 ppm (Pseudomonas aeruginosa): 9 mm | zone of inhibition at 500 ppm (Proteus mirabilis): 5 mm

CN(C)c1ccc(-c2nc(NCCON3C(=O)c4ccccc4C3=O)nc3c2SC2=NC(c4ccccc4)(c4ccccc4)C(=O)N23)cc1
zone of inhibition at 500 ppm (Bacillus subtilis): 10 mm | zone of inhibition at 500 ppm (Escherichia coli): 15 mm | zone of inhibition at 500 ppm (Aspergillus fumigatus): 8 mm | zone of inhibition at 500 ppm (Candida albicans): 19 mm | zone of inhibition at 500 ppm (Pseudomonas aeruginosa): 11 mm | zone of inhibition at 500 ppm (Proteus mirabilis): 7 mm

CN(C)c1ccc(C2C3SC4=NC(c5ccccc5)(c5ccccc5)C(=O)N4C3=NN2CCON2C(=O)c3ccccc3C2=O)cc1 (stereo unspecified)
zone of inhibition at 500 ppm (Bacillus subtilis): 7 mm | zone of inhibition at 500 ppm (Escherichia coli): 10 mm | zone of inhibition at 500 ppm (Aspergillus fumigatus): 2 mm | zone of inhibition at 500 ppm (Candida albicans): 17 mm | zone of inhibition at 500 ppm (Pseudomonas aeruginosa): 10 mm | zone of inhibition at 500 ppm (Proteus mirabilis): 5 mm

COc1ccc(-c2nc(NCCON3C(=O)c4ccccc4C3=O)nc3c2SC2=NC(c4ccccc4)(c4ccccc4)C(=O)N23)cc1
zone of inhibition at 500 ppm (Bacillus subtilis): 12 mm | zone of inhibition at 500 ppm (Escherichia coli): 11 mm | zone of inhibition at 500 ppm (Aspergillus fumigatus): 5 mm | zone of inhibition at 500 ppm (Candida albicans): 21 mm | zone of inhibition at 500 ppm (Pseudomonas aeruginosa): 12 mm | zone of inhibition at 500 ppm (Proteus mirabilis): 6 mm

O=C1c2ccccc2C(=O)N1OCCNc1nc(-c2ccc(F)cc2)c2c(n1)N1C(=O)C(c3ccccc3)(c3ccccc3)N=C1S2
zone of inhibition at 500 ppm (Bacillus subtilis): 13 mm | zone of inhibition at 500 ppm (Escherichia coli): 13 mm | zone of inhibition at 500 ppm (Aspergillus fumigatus): 4 mm | zone of inhibition at 500 ppm (Candida albicans): 23 mm | zone of inhibition at 500 ppm (Pseudomonas aeruginosa): 21 mm | zone of inhibition at 500 ppm (Proteus mirabilis): 8 mm

C[C@@H]1[C@H](O)[C@@H](C)/C=C/C=C/C=C/C=C/C=C/C=C/C=C/[C@H](O[C@@H]2O[C@H](C)[C@@H](O)[C@H](N)[C@@H]2O)C[C@@H]2O[C@](O)(C[C@@H](O)C[C@@H](O)[C@H](O)CC[C@@H](O)C[C@@H](O)CC(=O)O[C@H]1C)C[C@H](O)[C@H]2C(=O)O [AMPHOTERICIN B]
zone of inhibition at 500 ppm (Aspergillus fumigatus): 10 mm | zone of inhibition at 500 ppm (Candida albicans): 17 mm

COc1ccc(C2C3SC4=NC(c5ccccc5)(c5ccccc5)C(=O)N4C3=NN2CCON2C(=O)c3ccccc3C2=O)cc1 (stereo unspecified)
zone of inhibition at 500 ppm (Bacillus subtilis): 11 mm | zone of inhibition at 500 ppm (Escherichia coli): 9 mm | zone of inhibition at 500 ppm (Aspergillus fumigatus): 3 mm | zone of inhibition at 500 ppm (Candida albicans): 18 mm | zone of inhibition at 500 ppm (Pseudomonas aeruginosa): 17 mm | zone of inhibition at 500 ppm (Proteus mirabilis): 6 mm
